Key:
Aβ42 = Aβ42 content secreted by HEK293APP/sw overexpression cells after compound treatment (ELISA of supernatant); format: cell-based; details: 24 h; for Aβ42 content: APP/293 (HEK293APP/sw) cells, test sample 400 μM, culture supernatant, adjusted by total protein concentration, blank 11.08; for content of Aβ42 compared with benfotiamine in Comparative Example 2: APP/293 cells, 400 μM, in words
Protocol: (§1) (1) A BCA Protein Concentration Kit was purchased from Beyotime Biotechnology, a detection kit for Aβ40 and Aβ42 was purchased from Wako Co., Ltd., and cell culture related reagents were purchased from Gibico Co., Ltd.
(§2) (2) HEK293APP/sw overexpression cell culture: cells were cultured in a 48-well plate in DMEM culture medium (containing 10% FBS, 100 μg/mL G418 (Geneticin) and diabody), 4 mM stock solution of a test sample (prepared by dissolving the test sample in DMEM culture medium) was diluted to 400 μM in DMEM culture medium at a cell density of 70%, to each well was added 500 μL of the test sample, and the cells were cultured for 24 h.
(§3) (3) To the culture solution supernatant was added a BCA reagent, after incubating for 30 min at room temperature, absorbance of each well was measured at OD […] with a microplate reader, and a total protein concentration was calculated according to a protein standard curve; concentrations of Aβ40 and Aβ42 were measured with supernatant: the supernatant was added into a coated 96-well plate, followed by incubating overnight at 4° C., the reagent was removed and washed, HRP (horseradish peroxidase) labeled antibody was added, followed by incubating for 2 h at 4° C., the reagent was removed and washed, a TMB color developing solution was added, followed by incubating for 30 min at room temperature, a stop solution was added to stop reaction, absorbance of each well was measured at OD […] with a microplate reader, concentrations of Aβ40 and Aβ42 were calculated according to standard curves of A40 and Aβ42 respectively, and finally the concentrations of Aβ40 and Aβ42 were adjusted by using a total protein concentration to obtain a final concentration.

Aβ40 = Aβ40 content secreted by HEK293APP/sw overexpression cells after compound treatment (ELISA of supernatant); format: cell-based; details: 24 h; for Aβ40 content: APP/293 (HEK293APP/sw) cells, test sample 400 μM, culture supernatant, adjusted by total protein concentration, blank 127.81; for content of Aβ40 compared with benfotiamine in Comparative Example 2: APP/293 cells, 400 μM, in words
Protocol: as §1, §2, §3

Row | Compound | Aβ42 content (Aβ42) [pmol/L] | Aβ40 content (Aβ40) [pmol/L] | content of Aβ42 compared with benfotiamine in Comparative Example 2 (Aβ42) | content of Aβ40 compared with benfotiamine in Comparative Example 2 (Aβ40)
1 | CCCCC(CC)C(=O)S/C(CCOP(=O)(O)O)=C(/C)N(C=O)Cc1cnc(C)nc1N (stereo not drawn) [Example 13, (Z)—S-(2-(N-((4-amino-2-methylpyrimidin-5-yl)methyl) formamido)-5-(phosphonooxy)pent-2-en-3-yl) 2-ethylhexanethioate] | 24.36 | 56.28 | – | –
2 | CCCCCCCC(=O)S/C(CCOP(=O)(O)O)=C(/C)N(C=O)Cc1cnc(C)nc1N [Example 7, (Z)—S-(2-(N-((4-amino-2-methylpyrimidin-5-yl)methyl) formamido)-5-(phosphonooxy)pent-2-en-3-yl) octanethioate] | 6.09 | 106.81 | – | –
3 | C/C(=C(\CCOP(=O)(O)O)SC(=O)c1ccccc1)N(C=O)Cc1cnc(C)nc1N [Comparative Example 2, benfotiamine, reference compound] | 5.04 | 53.77 | – | –
4 | CCCCC(C)(C)C(=O)S/C(CCOP(=O)(O)O)=C(/C)N(C=O)Cc1cnc(C)nc1N [Example 17, (Z)—S-(2-(N-((4-amino-2-methylpyrimidin-5-yl)methyl) formamido)-5-(phosphonooxy)pent-2-en-3-yl) 2,2-dimethylhexanethioate] | 6.24 | 77.22 | – | –
5 | CCCCC(C)C(=O)S/C(CCOP(=O)(O)O)=C(/C)N(C=O)Cc1cnc(C)nc1N (stereo not drawn) [Example 15, (Z)—S-(2-(N-((4-amino-2-methylpyrimidin-5-yl)methyl) formamido)-5-(phosphonooxy)pent-2-en-3-yl) 2-methylhexanethioate] | 9.59 | 40.39 | – | –
6 | CCC/C=C/C(=O)S/C(CCOP(=O)(O)O)=C(/C)N(C=O)Cc1cnc(C)nc1N [Example 12, (E)-S—((Z)-2-(N-((4-amino-2-methylpyrimidin-5-yl)methyl) formamido)-5-(phosphonooxy)pent-2-en-3-yl) hex-2-enethioate] | 0.34 | 32.87 | significantly reduced | significantly reduced
7 | CCCC(C)C(=O)S/C(CCOP(=O)(O)O)=C(/C)N(C=O)Cc1cnc(C)nc1N (stereo not drawn) [Example 14, (Z)—S-(2-(N-((4-amino-2-methylpyrimidin-5-yl)methyl) formamido)-5-(phosphonooxy)pent-2-en-3-yl) 2-methylpentanethioate] | 6.79 | 60.34 | – | –
8 | C/C=C(\C)C(=O)S/C(CCOP(=O)(O)O)=C(/C)N(C=O)Cc1cnc(C)nc1N [Example 4, (E)-S—((Z)-2-(N-((4-amino-2-methylpyrimidin-5-yl)methyl) formamido)-5-(phosphonooxy)pent-2-en-3-yl) 2-methylbut-2-enethioate] | 5.77 | 71.80 | – | –
9 | CCC(C)(C)C(=O)S/C(CCOP(=O)(O)O)=C(/C)N(C=O)Cc1cnc(C)nc1N [Example 16, (Z)—S-(2-(N-((4-amino-2-methylpyrimidin-5-yl)methyl) formamido)-5-(phosphonooxy)pent-2-en-3-yl) 2,2-dimethylbutanethioate] | 33.70 | 85.96 | – | –
10 | CCCC(=O)S/C(CCOP(=O)(O)O)=C(/C)N(C=O)Cc1cnc(C)nc1N [Example 1, (Z)—S-(2-(N-((4-amino-2-methylpyrimidin-5-yl)methyl) formamido)-5-(phosphonooxy)pent-2-en-3-yl) butanethioate] | 8.59 | 45.47 | – | –
11 | C=CCCCC(=O)S/C(CCOP(=O)(O)O)=C(/C)N(C=O)Cc1cnc(C)nc1N [Example 9, (Z)—S-(2-(N-((4-amino-2-methylpyrimidin-5-yl)methyl) formamido)-5-(phosphonooxy)pent-2-en-3-yl) hex-5-enethioate] | 5.70 | 80.40 | – | –
12 | CCCCCCCCCC(=O)S/C(CCOP(=O)(O)O)=C(/C)N(C=O)Cc1cnc(C)nc1N [Example 2, (Z)—S-(2-(N-((4-amino-2-methylpyrimidin-5-yl)methyl) formamido)-5-(phosphonooxy)pent-2-en-3-yl) decanethioate] | 5.37 | 75.15 | – | –
13 | C=CC(C)(C)C(=O)S/C(CCOP(=O)(O)O)=C(/C)N(C=O)Cc1cnc(C)nc1N [Example 11, (Z)—S-(2-(N-((4-amino-2-methylpyrimidin-5-yl)methyl) formamido)-5-(phosphonooxy)pent-2-en-3-yl) 2,2-dimethylbut-3-enethioate] | 3.22 | 54.75 | reduced | substantially the same
14 | C/C(=C(\CCOP(=O)(O)O)SC(=O)Cc1c(F)cccc1F)N(C=O)Cc1cnc(C)nc1N [Example 10, (Z)—S-(2-(N-((4-amino-2-methylpyrimidin-5-yl)methyl) formamido)-5-(phosphonooxy)pent-2-en-3-yl) 2-(2,6-difluorophenyl) ethanethioate] | 10.62 | 71.11 | – | –
15 | C/C(=C(\CCOP(=O)(O)O)SC(=O)C(C)C)N(C=O)Cc1cnc(C)nc1N [Example 6, (Z)—S-(2-(N-((4-amino-2-methylpyrimidin-5-yl)methyl) formamido)-5-(phosphonooxy)pent-2-en-3-yl) 2-methylpropanethioate] | 2.41 | 44.38 | significantly reduced | significantly reduced
16 | CCC(C)C(=O)S/C(CCOP(=O)(O)O)=C(/C)N(C=O)Cc1cnc(C)nc1N (stereo not drawn) [Example 5, (Z)—S-(2-(N-((4-amino-2-methylpyrimidin-5-yl)methyl) formamido)-5-(phosphonooxy)pent-2-en-3-yl) 2-methylbutanethioate] | 2.09 | 37.65 | significantly reduced | significantly reduced
17 | CCCCCCCCCCCC(=O)S/C(CCOP(=O)(O)O)=C(/C)N(C=O)Cc1cnc(C)nc1N [Example 3, (Z)—S-(2-(N-((4-amino-2-methylpyrimidin-5-yl)methyl) formamido)-5-(phosphonooxy)pent-2-en-3-yl) dodecanethioate] | 4.93 | 128.90 | – | –
18 | C/C(=C(\CCOP(=O)(O)O)SC(=O)CCc1ccccc1)N(C=O)Cc1cnc(C)nc1N [Example 8, (Z)—S-(2-(N-((4-amino-2-methylpyrimidin-5-yl)methyl) formamido)-5-(phosphonooxy)pent-2-en-3-yl) 3-phenylpropanethioate] | 6.38 | 57.86 | – | –

From patent US11591354B2, “Thiamine compound, preparation method and pharmaceutical composition thereof” (SHANGHAI RAISING PHARMACEUTICAL CO., LTD., priority 2018, dated 2023)
